Patent US6348445B1, “Biologically active peptides with reduced toxicity in animals and a method for preparing same” (priority 1992, dated 2002)
Where no end group is shown, it is not given here.

Experiments:
[1] = test system: A-549 human lung carcinoma cells; format: cell-based; conditions: 24 h
Protocol: (§1) Human lung carcinoma cells, A-549 (ATCC), and human breast carcinoma cells, MDA-435 (from Sandoz), were grown in Ham's F12K medium (GIBCO-BRL) supplemented with […] fetal bovine serum. Human chronic myelogenous leukemia cells, K-562 (ATCC), were maintained in RPMI 1640 medium (GIBCO-BRL) supplemented with 10% fetal bovine serum. Human melanoma cell line, WM 1617 (from the Wistar Institute), was maintained in 2% Tumor media.
(§2) Cytotoxicity assays were performed on the cell lines described above using CytoLite (Packard Instrument Company) following the manufacture's instruction. Briefly, 2×10^4cells/well were seeded into black, 96-well ViewPlates (Packard Instrument Company) in 100 μl/well growth medium. Ser. dilutions of Magainin peptides were then added into the cells and the plates incubated for 24 hours in a humidified 5% CO2 atmosphere at 37° C. Following incubation, 25 μl/well of CytoLite activator solution was added followed by 125 μl/well of amplifier solution. Luminescence was measured on TopCount Microplate Scintillation and Luminescence counter (Packard Instrument Company) using a 1 second count time in SPC (single photon counting) mode at 25 ° C. All assays were performed in triplicate. The peptides tested in this assay were MSI-78(SEQ ID NO: 154 —NH2), MSI-1858(SEQ ID NO: 154 —NH2 Methane Sulfonate), MSI-344(SEQ ID NO: 154 —OH) and MSI-1857(SEQ ID NO: 154 —OH Methane Sulfonate). The results of these assays are shown in FIGS. 2-9 with the corresponding IC50 values in Table VIII. In all cases the activity of the methane sulfonated peptide was as good or better than the parent peptide as indicated by both the survival curves and the IC50 values.

[2] = test system: K-562 human chronic myelogenous leukemia cells; format: cell-based; conditions: 24 h
Protocol: as §1, §2

[3] = test system: MDA-435 human breast carcinoma cells; format: cell-based; conditions: 24 h
Protocol: as §1, §2

[4] = test system: WM 1617 human melanoma cells; format: cell-based; conditions: 24 h
Protocol: as §1, §2

[5] = MTD and LD50, single intravenous administration; format: in vivo, mice
Protocol: Determinations of a maximal tolerated dose (MTD) of a single intravenous (i.v.) administration or intraperitoneal (i.p.) administration of MSI-344 or MSI-1857 in 100 CD-1®BR mice were done. The MTD of a single intravenous (i.v.) administration was 10 mg/kg for MSI-344 and 60 mg/kg for MSI-1857. The MTD of a single intraperitoneal (i.p.) administration was less than 20 mg/kg for MSI-344 and between 50 and 100 mg/kg for MSI-1857.
To determine estimates of MTDs and LD50s of MSI-344 and MSI-1857 administered intravenously or intraperitoneally as a single bolus in mice.
A 5 mg/mL solution of MSI-344 was made in saline (0.9% sodium chloride injection USP, Abbott, North Chicago, Ill.) corrected for peptide content. Solutions of MSI-344 at concentrations of 4, 3, 2, 1.5, 1, and 0.5 mg/mL were made by diluting the 5 mg/mL solution using saline as diluent. (Errors were made in solution preparation of the 4, 3, and 2 mg/mL solutions and results from groups with animals doses with these solutions, i.e. groups 12, 13, and 14, were eliminated from study analysis). A 20 mg/mL solution of MSI-1857 was made in saline. Solutions of MSI-1857 at concentrations of 15, 10, 8, 6, and 5 mg/mL were made by diluting the 20 mg/mL solution using saline as diluent.
Another 5 mg/mL solution of MSI-344 was made in saline corrected for peptide content. Solutions of 4, 3 and 2 mg/mL were made by diluting the 5 mg/mL solution using saline as diluent. A 15 mg/mL solution of MSI-1857 in saline was made corrected for peptide content. A 10 mg/mL solution was made by diluting the 15 mg/mL solution with saline.
Mice (four mice per dose group) were intravenously or intraperitoneally administered a single bolus of MSI-344 or MSI-1857 using an injection volume of 10 mL/kg of the appropriate solution concentration. If the first two mice in a group died immediately (within 10 secs) after administration of a dose then no other mice injected with this dose of this compound (for ethical reasons). Survival was monitored daily for at least eight days post-administration. Study designs are presented in Tables IX and X. Toxicity Study # 262 was a supplement to Toxicity Study #261.

[6] = Tox Study #261 group 2, 20 mg/kg IV, 2 injected
[7] = Tox Study #261 group 3, 15 mg/kg IV, 2 injected
[8] = Tox Study #261 group 4, 10 mg/kg IV, 4 injected
[9] = Tox Study #261 group 5, 5 mg/kg IV, 4 injected

GIGKFLKKAKKFGKAFVKILKK [MSI-344]
0: No. of Survivors Day 1 [5, 6] | No. of Survivors Day 2 [5, 6] | No. of Survivors Day 3 [5, 6] | No. of Survivors Day 4 [5, 6] | No. of Survivors Day 5 [5, 6] | No. of Survivors Day 6 [5, 6] | No. of Survivors Day 7 [5, 6] | No. of Survivors Day 8 [5, 6] | No. of Survivors Day 1 [5, 7] | No. of Survivors Day 2 [5, 7] | No. of Survivors Day 3 [5, 7] | No. of Survivors Day 4 [5, 7] | No. of Survivors Day 5 [5, 7] | No. of Survivors Day 6 [5, 7] | No. of Survivors Day 7 [5, 7] | No. of Survivors Day 8 [5, 7]
12.5 mg/kg: LD50 ([5]; mouse, in vivo, iv, CD-1 mice, estimated from dose response curves)
10 mg/kg: MTD ([5]; mouse, in vivo, iv, CD-1 mice, read-out: MTD of a single intravenous (i.v.) administration)
10 µM: IC50 [1]
20 µM: IC50 [2]
4: No. of Survivors Day 1 [5, 8] | No. of Survivors Day 2 [5, 8] | No. of Survivors Day 3 [5, 8] | No. of Survivors Day 4 [5, 8] | No. of Survivors Day 5 [5, 8] | No. of Survivors Day 6 [5, 8] | No. of Survivors Day 7 [5, 8] | No. of Survivors Day 8 [5, 8] | No. of Survivors Day 1 [5, 9] | No. of Survivors Day 2 [5, 9] | No. of Survivors Day 3 [5, 9] | No. of Survivors Day 4 [5, 9] | No. of Survivors Day 5 [5, 9] | No. of Survivors Day 6 [5, 9] | No. of Survivors Day 7 [5, 9] | No. of Survivors Day 8 [5, 9]
8 µM: IC50 [3]
5 µM: IC50 [4]
